The values below come from PMC10401570, “Programmable Monodisperse Glyco-Multivalency Using Self-Assembled Coordination Cages as Scaffolds” (ACS Applied Materials & Interfaces, 2023).

In this experiment the target is Jacalin (Artocarpus integer, UniProt P18670). Put plainly: competition turbidimetry: free galactose blocks lectin aggregation by galactose cage Co4Gal ([…] against Co8Gal). The format is binding.

SMILES strings stand for the structures.

For orientation: IC50 means the point on the concentration scale where inhibition reaches its midpoint. The low end stands for higher potency, the high end for lower potency.

Chain of Jacalin (P18670 whole entry): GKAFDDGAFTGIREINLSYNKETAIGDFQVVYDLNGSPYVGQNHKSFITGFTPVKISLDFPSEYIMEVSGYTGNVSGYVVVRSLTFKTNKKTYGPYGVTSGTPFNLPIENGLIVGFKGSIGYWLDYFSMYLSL
Chain of Jacalin (P18671 whole entry partner): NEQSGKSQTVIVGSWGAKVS

As to `OC[C@H]1OC(O)[C@H](O)[C@@H](O)[C@H]1O` (stereo partly drawn) [D-galactose], the IC50 was determined as 30 mM.
